As usually defined, the Kd is a measure of binding affinity in units of concentration. Lower therefore signals a tighter complex.

Assay [1] addresses T1, MelBSt (Salmonella enterica, UniProt P30878). Nature of the assay: Trp→D^2G FRET, displacement of bound D^2G. Type of assay: binding. The following applies: read-out: RSO membrane vesicles, 10 μM D^2G, 20 mM NaCl, KPi pH 7.5.
Assay [2] has as its target T2, MelBEc (Escherichia coli, UniProt P02921). Nature of the assay: isothermal titration calorimetry. It is filed as binding. The following applies: purified in 0.01% MNG-3, 20 mM Tris-HCl pH 7.5, 100 mM NaCl, 10% glycerol, 25 °C.
Assay [3] concerns the target T1, MelBSt. Description: isothermal titration calorimetry. Type of assay: binding. The following applies: purified in 0.01% MNG-3, 20 mM Tris-HCl pH 7.5, 100 mM NaCl, 10% glycerol, 25 °C. Background: In ITC the heat of successive injections is recorded.
Assay [4] concerns the target T2, MelBEc. Nature of the assay: Trp→D^2G FRET, displacement of bound D^2G. The following applies: read-out: RSO membrane vesicles, 10 μM D^2G, 20 mM NaCl, KPi pH 7.5. Type of assay: binding.
For assay [5], the target named is MelBSt (Salmonella enterica, UniProt P30878, R295C). The following applies: RSO vesicles solubilized with MNG-3, 10 μM D^2G, 20 mM NaCl.
In assay [6] the target is WT melibiose permease of Escherichia coli (MelBEc) (Escherichia coli, UniProt P02921 1-473). Nature of the assay: ITC.
For assay [7], the target named is R141C mutant of the melibiose permease of Salmonella typhimurium (R141C MelBSt) (Salmonella typhimurium, UniProt P30878 1-476, R141C). Description: ITC.

T2 sequence (P02921 2-473): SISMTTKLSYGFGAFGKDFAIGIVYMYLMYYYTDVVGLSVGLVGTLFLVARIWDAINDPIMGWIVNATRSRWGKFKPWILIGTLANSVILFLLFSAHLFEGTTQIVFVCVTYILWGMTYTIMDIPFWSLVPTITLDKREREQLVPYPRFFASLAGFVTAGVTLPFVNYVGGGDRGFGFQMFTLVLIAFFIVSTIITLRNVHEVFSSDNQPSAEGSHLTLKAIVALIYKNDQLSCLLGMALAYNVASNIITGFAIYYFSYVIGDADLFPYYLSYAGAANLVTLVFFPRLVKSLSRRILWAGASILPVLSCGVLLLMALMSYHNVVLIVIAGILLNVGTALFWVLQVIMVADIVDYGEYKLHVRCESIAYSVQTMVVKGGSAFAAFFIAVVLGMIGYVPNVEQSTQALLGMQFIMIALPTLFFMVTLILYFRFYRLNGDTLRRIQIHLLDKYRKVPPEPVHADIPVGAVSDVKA

For `OC[C@H]1O[C@H](OC[C@H]2OC(O)[C@H](O)[C@@H](O)[C@@H]2O)[C@H](O)[C@@H](O)[C@H]1O` (stereo partly shown) [melibiose], the IC50 at MelBSt [1] amounted to 2420 ± 220 µM; on MelBEc [4] it was 660 ± 160 µM; on MelBSt [5], 5490 ± 830 µM. The Kd amounted to 1280 ± 60 µM at MelBEc [2] and 2510 ± 130 µM at MelBSt [3].

B1: phosphotransferase protein IIA^Glc of E. coli (natural protein, UniProt P69783 1-169, looked up)
chain: MGLFDKLKSLVSDDKKDTGTIEIIAPLSGEIVNIEDVPDVVFAEKIVGDGIAIKPTGNKMVAPVDGTIGKIFETNHAFSIESDSGVELFVHFGIDTVELKGEGFKRIAEEGQRVKVGDTVIEFDLPLLEEKAKSTLTPVVISNMDEIKELIKLSGSVTVGETPVIRIKK
Consider B1, for which, in assay [6], the binding result is “binds”. Also, binding in assay [7] was put at a Kd of 2 µM.
